# Data from US10905704B2, “Agents and methods using thereof for the prevention and treatment of stem cell muscle disorders” (ECOLE POLYTECHNIQUE FEDERALE DE LAUSANNE (EPFL), priority 2015, dated 2021).
# Tests used:
# MuSCs [1] = test: Senescence and apoptosis marker staining of MuSCs from NR-treated mice (γH2AX, β-galactosidase, cleaved CASP3); assay type: cell-based, C57BL/6J mice
# Protocol: Histology. TA muscles were harvested and the immunestaining was performed as described in Example 2. The following antibodies were used: anti-γH2AX […] (Millipore), anti-activated-caspase3 (Cell signaling). Secondary antibodies were coupled to Alexa-488 or Alexa-568 fluorochromes (Life technology), and nuclei were stained with DAPI (Invitrogen). β-galactosidase assay. MuSCs were sorted directly and cultured primary MuSCs were grown on 8 chamber slides (Thermo Scientific). Senescence-associated β-galactosidase activity was detected using the senescence β-galactosidase staining kit (Cell signaling), according to manufacturer's instructions. Cell culture and treatments. FACS sorted MuSCs were grown on a 10% Matrigel (Corning)-coated dish and flasks with Fams F-10 media (Gibco), supplemented with 20% fetal bovine serum (FBS, Gibco), 2.5 ng/ml basic fibroblast growth factor (bFGF, Sigma) and penicillin/streptomycin (1×, Gibco). Dishes were coated with 10% growth factor-free Matrigel solution on ice for 7 min then transferred to a 37° C. cell culture incubator overnight before use. Cells were grown for three generations in vitro before experiments with cells plated and passaged at 10^3 cells/ml and 50% confluencies, respectively. C2C12 mouse myoblasts were grown in DMEM (4.5 g/1 glucose, Gibco) supplemented with 10% FBS and penicillin/streptomycin (1×, Gibco).
# MuSCs [2] = test: Gene expression analyses (qPCR) in freshly isolated MuSCs of NR-treated mice; assay type: cell-based, C57BL/6J mice
# Protocol: Gene expression analyses. Total RNA was extracted from MuSCs by sorting cells directly into TriPure RNA isolation reagent (Roche) or from cultured C2C12 myoblasts using TriPure reagent according to the product manual. Total RNA was transcribed to cDNA using QuantiTect Reverse Transcription Kit (Qiagen). Expression of selected genes was analyzed using the LightCycler480 system (Roche) and LightCycler® 480 SYBR Green I Master reagent (Roche). The acidic ribosomal protein 36b4 gene (ribosomal protein, large, P0, Rp1p0) was used as housekeeping reference. FACS based muscle stem cell isolation. Gastrocnemius, soleus, quadriceps, and tibialis anterior muscles from both limbs were excised and transferred into PBS on ice. All muscles were trimmed, minced and digested with 0.1 mg/ml of type II collagenase (Sigma) in PBS for 15 min at 37° C. Samples were then centrifuged at 750 g for 5 min and further digested in 1 mg/ml of collagenase/dispase (Roche) for 30 mins at 37° C. Muscle slurries were sequentially filtered through 100, 70 and 40 μm cell strainers. The isolated cells were then washed in washing buffer (PBS+2.5% FBS) then resuspended in 200 μl of washing buffer and immediately stained with antibodies, including the MuSC markers CD31 (1:800, eBioscience, eFluor450 conjugated); CD34 (1:200, eBioscience, eFluor660 conjugated); CD45 (1:200, eBioscience, eFluor450 conjugated); CD11b (1:400, eBioscience, eFluor450 conjugated); Sca-1 (1:1000, eBioscience, PE-Cy7 conjugated); and α7 integrin (1:300, MBL) for 30 min at 4° C. Secondary staining was performed with a mixture of goat anti-mouse antibody (1:800, Life technologies, Alexa Fluor 488 conjugated) and propidium Iodide (PI, Sigma) for 15 min at 4° C. in the dark. Stained cells were analysed and sorted using the FACSAria II instrument (BD Biosciences). Debris and dead cells were excluded by forward scatter, side scatter and PI gating. Cells were sorted either directly on slides for immunostaining and into TriPure (Roche) reagent for RNA extraction.
# MuSCs [3] = test: MuSCs transplantation from NR-treated aged donors into Mdx mice; assay type: in vivo; conditions: MuSCs from NR-treated aged donors vs controls, Mdx recipients, 4 weeks
# Protocol: MuSCs transplantation. 5,000-8,000 double-sorted MuSCs isolated from NR or normal chow diet C57B/6J mice were resuspended in 10 μl of F10 media with 20% FBS and injected directly into cardiotoxin (CTX) pre-injured tibialis anterior (TA) muscle of Mdx mice 24hrs after the injury. The CTX pre-injury was performed as described above. Recipient mice were sacrificed 4 weeks after transplantation, TA muscle were harvested and prepared for cryosection.
# Histology. TA muscles were harvested from anaesthetized mice and immediately frozen in Tissue-TEK® OCT compound (PST). 8-μm cryosections were collected and fixed with 4% paraformaldehyde, which are either stained with haematoxylin/eosin (HE) or antibodies. For immunostainings, heat activated antigen retrieval was performed in pH 6.0 citrate buffer for 10 min at 65° C. After washing with PBS-0.1% tween 20 (PBST), the sections were blocked with 10% affinipure Fab goat anti mouse IgG (Jackson Immunoresearch) in PBST for 60 min and PBST containing 2% BSA and 5% goat serum for 30 min at room temperature. Primary antibodies were then applied over night at 4° C. The following antibodies were used: anti-eMHC (Developmental Studies Hybridoma Bank, DSHB, University of Iowa), anti-Pax7 (DSHB, University of Iowa), anti-Laminin (Sigma). Subsequently, the slides were washed in PBST and incubated with appropriate secondary antibodies and labeling dyes. […]
# C2C12 myoblasts = test: Western blot of UPRmt markers, prohibitins and cell cycle proteins in NR-treated C2C12 myoblasts; assay type: cell-based, mouse
# Protocol: Western blotting performed as described in Example 3. The following primary antibodies were used: anti-HSP60 (Enzo Life Science); anti-β-actin (Sigma); anti-PHB (Biolegend); anti-PHB2 (Santa Cruz); anti-CKD4 (Novus biologicals); anti-CCND1 (Santa Cruz); anti-CCND3 (Santa Cruz); anti-HSP90 (BD Biosciences); HSP70 (Abcam); and anti-CLPP (Sigma). Cell culture and treatments were prepared according to description of Example 3. C2C12 mouse myoblasts were grown in DMEM (4.5 g/1 glucose, Gibco) supplemented with 10% FBS and penicillin/streptomycin (1×, Gibco). Cell transformation with Phb (Santa Cruz) and Phb2 shRNA (Santa Cruz) were performed using jetPEI DNA transfection kit (Polyplus), according to manufacturer's instructions. Cells were treated with 1 mM NR or PBS for 6 hours before cell harvesting or fixation. Respirometry on C2C12 myoblasts. Basal and uncoupled oxygen consumption rates (OCRs) and the extracellular acidification rate (ECAR) was measured using the Seahorse extracellular flux bioanalyzer (XF96, Seahorse Bioscience Inc.). To uncouple mitochondria, 5 uM of FCCP was injected after a basal respiration measurement. All measurements were performed in triplicates and results were normalized to total protein amount (C2C12 cells), assessed using a Bradford kit (Bio-Rad).
# [4] = MuSCs from NR-treated mice cultured ex vivo for three generations
# [5] = freshly isolated aged MuSCs, NR diet, FIG. 4H
structure (smiles),measurement,setting,value
"NC(=O)c1ccc[n+]([C@@H]2O[C@H](CO)[C@@H](O)[C@H]2O)c1 [NR, nicotinamide riboside]",cleaved caspase-3 (CASP3) immunostaining,MuSCs [1]; [4],reductions
same,γH2AX positive nuclei,MuSCs [1]; [4],reductions
same,γH2AX positive nuclei,"MuSCs [1]; freshly isolated MuSCs from aged mice, NR diet, FIG. 4A,B",staining was reduced
same,β-galactosidase staining (senescence),"MuSCs [1]; freshly sorted MuSCs from aged mice, NR diet",reduction of the nuclear damage response was confirmed
same,mitochondrial TCA and OXPHOS gene expression,"MuSCs [2]; aged MuSCs, NR diet, FIG. 4I",largely rescued
same,expression of cell cycle related genes,MuSCs [2]; [5],increasing the expression of cell cycle related genes
same,mRNA levels of CDKN1A and related senescence indicators,MuSCs [2]; [5],significantly reduced
same,Phb1 and Phb2 expression,"MuSCs [2]; young and aged MuSCs, NR 400 mg/kg/day 6 weeks, FIG. 5B",induced Phb1 and Phb2 expression
same,replenishment of MuSC compartment after transplantation,MuSCs [3],more effectively replenished the MuSC compartment
same,myogenesis of dystrophin-positive myofibers after transplantation,MuSCs [3]; FIG. 3N,stimulated myogenesis of dystrophin-positive myo fibers
same,dependence of NR effects on cell senescence on prohibitins,"C2C12 myoblasts; C2C12, Phb1 and Phb2 shRNA knockdown with 6-hour NR treatment, overexpression, FIG. 5C,D",PHB-dependent
same,Phb1 and Phb2 expression,"C2C12 myoblasts; C2C12 myoblasts, NR treatment, FIG. 5A",induced Phb1 and Phb2 expression
same,"UPRmt markers (HSP60, CLPP)","C2C12 myoblasts; NR-treated C2C12 mouse myoblasts, FIG. 5A",similarly induced
